Our source for the Activity, inhibition and IC50 values is ChEMBL document CHEMBL4334506, “Xylodon flaviporus-Derived Drimane Sesquiterpenoids That Inhibit Osteoclast Differentiation” (J Nat Prod, 2019).

For series [1], the system named is BMDM. Kind of series: Cytotoxicity against M-CSF stimulated C57BL/6 mouse bone marrow macrophage cells at 3 to 30 uM after 4 days by XTT assay. Format: cell-based. As to conditions: 96 h.
Series [2] concerns BMDM. The series can be described thus: Inhibition of M-CSF/RANKL-induced osteoclast differentiation in C57BL/6 mouse bone marrow macrophage after 4 days by TRAP-staining based microscopic analysis. Format: functional, cell-based.
Series [3] in a line: Inhibition of M-CSF/RANKL-induced osteoclast differentiation in C57BL/6 mouse bone marrow macrophage assessed as reduction in multinucleated TRAP+ cells after 4 days by TRAP-staining based microscopic analysis. As to conditions: C57BL/6, BMDM, 96 h. The format is functional, cell-based.
In series [4] the test system is BMDM. The series can be described thus: Cytotoxicity against M-CSF stimulated C57BL/6 mouse bone marrow macrophage cells at 1 to 10 uM after 4 days by XTT assay. Particulars: 96 h. Format: cell-based. In general terms: Tetrazolium assays rely on reduction of a dye to a coloured formazan, in cell work by metabolically active cells.

`CC1(C)CCC[C@]2(C)[C@@H]3C(=C[C@H](OC(=O)/C=C/c4ccccc4)[C@@H]12)CO[C@H]3O`: in the series with BMDM [1], the Activity result was “Non-Toxic”. In addition, the inhibition result in the series with BMDM [2] was “Dose-dependent effect”. For the same compound, in series [3], the IC50 (as a rule, the concentration that gives 50% inhibition) turned out to be 10.7 µM.

In the case of `CC1(C)CCC[C@]2(C)[C@@H]3C(=C[C@H](OC(=O)/C=C/c4ccc(O)cc4)[C@@H]12)CO[C@H]3O`, in the series with BMDM [2], the inhibition result is “Dose-dependent effect”. For the same compound, the Activity result in the series with BMDM [4] was “Non-Toxic”. Moreover, the IC50 in series [3] turned out to be 2.1 µM.

For `CC1(C)CCC[C@]2(C)C3=C(COC3=O)C[C@H](OC(=O)/C=C/c3ccccc3)[C@@H]12`, the inhibition entry in the series on BMDM [2] was “Dose-dependent effect”. In addition, the Activity entry with BMDM [4] was “Non-Toxic”. Moreover, in series [3], the IC50 is 1.6 µM.

Regarding `CO[C@@H]1OC(=O)C2=C[C@H](OC(=O)/C=C/c3ccccc3)[C@H]3C(C)(C)CCC[C@]3(C)[C@H]21`, the inhibition result with BMDM [2] was “Dose-dependent effect”. For the same compound, the Activity result with BMDM [4] was “Non-Toxic”. Further, in series [3], the IC50 was 10.1 µM.

Regarding `CC1(C)CCC[C@]2(C)[C@H](O)C(C=O)=C[C@H](OC(=O)/C=C/c3ccccc3)[C@@H]12`, the inhibition entry in the series with BMDM [2] is “Dose-dependent effect”. Moreover, the Activity entry in the series with BMDM [4] is listed as “Non-Toxic”. For the same compound, in series [3], the IC50 worked out at 8.5 µM.

For `CC1(C)CCC[C@]2(C)C3=C(COC3=O)C[C@H](OC(=O)/C=C/c3ccc(O)cc3)[C@@H]12`, the inhibition result with BMDM [2] was “Dose-dependent effect”. Moreover, in the series on BMDM [4], the Activity result is given as “Non-Toxic”. Further, in series [3], the half-inhibitory concentration (IC50) came to 0.9 µM.
